This is an account of results in ChEMBL document CHEMBL1909294, “Translating clinical findings into knowledge in drug safety evaluation--drug induced liver injury prediction system (DILIps)” (PLoS Comput Biol, 2011).

SMILES strings stand for the structures.

Data set [1] concerns Hepatotoxicity.
Data set [2] deals with Hepatotoxicity. The source holds these as a separate data set.
The subject of data set [3] is Hepatotoxicity. The source holds these as a separate data set.
Data set [4] has as its system Hepatotoxicity. The source holds these as a separate data set.
For data set [5], the system named is Hepatotoxicity. This is another data set of the same source.
Data set [6] concerns Hepatotoxicity. The source holds these as a separate data set.
Data set [7] relates to Hepatotoxicity. The source holds these as a separate data set.
The test system of data set [8] is Hepatotoxicity. This is another data set of the same source.
Data set [9] deals with Hepatotoxicity. The source holds these as a separate data set.
The test system of data set [10] is Hepatotoxicity. This is another data set of the same source.
The test system of data set [11] is Hepatotoxicity. This is another data set of the same source.
Data set [12] has as its system Hepatotoxicity. The source holds these as a separate data set.
In data set [13] the test system is Hepatotoxicity. This is another data set of the same source.
Data set [14] deals with Hepatotoxicity. The source holds these as a separate data set.
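For HepSE Combined Scores in this document: combined hepatic side effect score as listed in the training data of the Drug Induced Liver Injury Prediction System (DILIps).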
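For HepSE bilirubinemia in this document: bilirubinemia hepatic side effect score drawn from the DILIps training data, a prediction system for drug-induced liver injury; call rule not given here.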
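For HepSE cholecystitis in this document: Cholecystitis-related hepatic side effect score drawn from the DILIps (drug-induced liver injury prediction) training data set; call rule not given here.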
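For HepSE cholelithiasis in this document: hepatic side effect score for cholelithiasis, drawn from the DILIps training data for predicting drug-induced liver injury; call rule not given here.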
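For HepSE cirrhosis in this document: cirrhosis hepatic side effect score taken from the DILIps (drug-induced liver injury prediction) training set; call rule not given here.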
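For HepSE elevated liver function tests in this document: hepatic side effect score for raised liver function tests, as recorded in the DILIps training set used for predicting drug-induced liver injury.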
For HepSE hepatic failure in this document: call rule not given here.
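For HepSE hepatic necrosis in this document: score of hepatic side effects for hepatic necrosis, drawn from the training data of DILIps, a prediction system for drug-induced liver injury; call rule not given here.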
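For HepSE hepatitis in this document: Hepatitis-related hepatic side effect score taken from the training data of DILIps, a prediction system for drug-induced liver injury; call rule not given here.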
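For HepSE hepatomegaly in this document: hepatic side effect score for hepatomegaly, taken from the training set of the DILIps drug-induced liver injury prediction system; call rule not given here.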
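For HepSE jaundice in this document: Jaundice-related hepatic side-effect score drawn from the training data of the DILIps (drug-induced liver injury prediction system); call rule not given here.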
For HepSE liver disease in this document: call rule not given here.
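For HepSE liver fatty in this document: hepatic side effect score for fatty liver, taken from the DILIps training set for predicting drug-induced liver injury; call rule not given here.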
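For HepSE liver function tests abnormal in this document: hepatic side effect score taken from the DILIps (drug-induced liver injury prediction system) training data, here covering abnormal liver function test findings.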

In turn, `CCOC(=O)[C@H](CCc1ccccc1)N[C@@H](C)C(=O)N1[C@H](C(=O)O)C[C@@H]2CCC[C@@H]21` displayed a HepSE_bilirubinemia in data set [1] of 0. The compound also displayed a HepSE_cholecystitis in data set [2] of 0. Also, in [3], the HepSE_cholelithiasis stood at 0. This compound also registered a HepSE_cirrhosis in data set [4] of 0. Moreover, the “HepSE_elevated liver function tests” value in data set [5] is reported as 0. The same compound gave a HepSE_hepatic failure in data set [6] of 1. For the same compound, the HepSE_hepatic necrosis in data set [7] was determined as 1. In [8], this compound returned a HepSE_hepatitis of 1. Further, the HepSE_hepatomegaly in [9] is reported as 0. In data set [10], this compound registered a HepSE_jaundice of 1. The compound also registered a HepSE_liver disease in [11] of 0. The compound further displayed a HepSE_liver fatty in data set [12] of 0. In addition, the “HepSE_liver function tests abnormal” value in data set [13] is listed as 0. Besides, in data set [14], the “HepSE_Combined Scores” value came out at 4.

In turn, `COc1ccc(C[C@@H]2c3cc(OC)c(OC)cc3CC[N@+]2(C)CCC(=O)OCCCCCOC(=O)CC[N@@+]2(C)CCc3cc(OC)c(OC)cc3[C@H]2Cc2ccc(OC)c(OC)c2)cc1OC` showed a HepSE_bilirubinemia in data set [1] of 0. For the same compound, the HepSE_cholecystitis in data set [2] is recorded as 0. The same compound registered a HepSE_cholelithiasis in [3] of 0. In data set [4], the HepSE_cirrhosis is on record as 0. For the same compound, in [5], the “HepSE_elevated liver function tests” value was determined as 0. This compound also showed a HepSE_hepatic failure in data set [6] of 0. The HepSE_hepatic necrosis in data set [7] turned out to be 0. This compound displayed a HepSE_hepatitis in [8] of 0. This compound also registered a HepSE_hepatomegaly in data set [9] of 0. Also, the HepSE_jaundice in data set [10] is given as 0. This compound yielded a HepSE_liver disease in [11] of 0. In addition, the HepSE_liver fatty in data set [12] turned out to be 0. Also, the “HepSE_liver function tests abnormal” value in [13] is recorded as 0. Moreover, the “HepSE_Combined Scores” value in data set [14] was found to be 0.

The compound `CC[C@@H](C(N)=O)N1CCCC1=O` gave a HepSE_bilirubinemia in data set [1] of 0. This compound also displayed a HepSE_cholecystitis in [2] of 0. The same compound yielded a HepSE_cholelithiasis in [3] of 0. Moreover, in data set [4], the HepSE_cirrhosis came to 0. Besides, the “HepSE_elevated liver function tests” value in data set [5] stood at 0. In addition, the HepSE_hepatic failure in data set [6] came out at 1. This compound also yielded a HepSE_hepatic necrosis in [7] of 0. This compound had a HepSE_hepatitis in [8] of 1. The HepSE_hepatomegaly in data set [9] amounted to 0. The same compound had a HepSE_jaundice in data set [10] of 0. The compound also showed a HepSE_liver disease in [11] of 0. The HepSE_liver fatty in [12] came out at 0. In addition, the “HepSE_liver function tests abnormal” value in data set [13] is 0. The “HepSE_Combined Scores” value in data set [14] is 2.

Take `COc1ccc(CC2c3cc(OC)c(OC)cc3CC[N+]2(C)CCC(=O)OCCCCCOC(=O)CC[N+]2(C)CCc3cc(OC)c(OC)cc3C2Cc2ccc(OC)c(OC)c2)cc1OC` (stereo not given): the HepSE_bilirubinemia in data set [1] was 0. The HepSE_cholecystitis in [2] is given as 0. This compound came in with a HepSE_cholelithiasis in [3] of 0. The compound further had a HepSE_cirrhosis in data set [4] of 0. For the same compound, the “HepSE_elevated liver function tests” value in [5] is 0. The HepSE_hepatic failure in [6] came to 0. Besides, the HepSE_hepatic necrosis in data set [7] came to 0. In data set [8], this compound registered a HepSE_hepatitis of 0. This compound also had a HepSE_hepatomegaly in data set [9] of 0. Further, in data set [10], the HepSE_jaundice came out at 0. This compound also displayed a HepSE_liver disease in [11] of 0. Also, the HepSE_liver fatty in data set [12] is recorded as 0. Besides, the “HepSE_liver function tests abnormal” value in data set [13] worked out at 0. In addition, in data set [14], the “HepSE_Combined Scores” value was 0.

With `CCCc1nc(C)c2c(=O)[nH]c(-c3cc(S(=O)(=O)N4CCN(CC)CC4)ccc3OCC)nn12`, the HepSE_bilirubinemia in data set [1] is 0. The compound further registered a HepSE_cholecystitis in data set [2] of 0. For the same compound, in data set [3], the HepSE_cholelithiasis turned out to be 0. For the same compound, the HepSE_cirrhosis in data set [4] worked out at 0. For the same compound, the “HepSE_elevated liver function tests” value in data set [5] is on record as 0. In data set [6], this compound yielded a HepSE_hepatic failure of 0. The compound further had a HepSE_hepatic necrosis in data set [7] of 0. Further, the HepSE_hepatitis in [8] is reported as 0. This compound showed a HepSE_hepatomegaly in data set [9] of 0. This compound also gave a HepSE_jaundice in data set [10] of 0. This compound also registered a HepSE_liver disease in data set [11] of 0. Moreover, the HepSE_liver fatty in data set [12] is on record as 0. In addition, in data set [13], the “HepSE_liver function tests abnormal” value was determined as 1. In [14], the “HepSE_Combined Scores” value is given as 1.

In data set [1], `CCOC(=O)[C@H](CCc1ccccc1)N[C@@H](C)C(=O)N1Cc2ccccc2C[C@H]1C(=O)O` gave a HepSE_bilirubinemia of 0. This compound also showed a HepSE_cholecystitis in [2] of 0. In [3], this compound registered a HepSE_cholelithiasis of 0. For the same compound, the HepSE_cirrhosis in data set [4] came to 0. Besides, in [5], the “HepSE_elevated liver function tests” value is reported as 0. For the same compound, the HepSE_hepatic failure in data set [6] was 1. The compound further showed a HepSE_hepatic necrosis in [7] of 0. Also, the HepSE_hepatitis in data set [8] was determined as 1. The compound also returned a HepSE_hepatomegaly in [9] of 0. In [10], this compound yielded a HepSE_jaundice of 0. In addition, the HepSE_liver disease in [11] stood at 0. Besides, the HepSE_liver fatty in data set [12] was 0. Besides, the “HepSE_liver function tests abnormal” value in data set [13] turned out to be 1. In addition, the “HepSE_Combined Scores” value in [14] is 3.

For the compound `[Ca+2].[H-].[H-]`, the HepSE_bilirubinemia in data set [1] amounted to 0. The compound also yielded a HepSE_cholecystitis in data set [2] of 0. This compound also returned a HepSE_cholelithiasis in data set [3] of 0. The compound further showed a HepSE_cirrhosis in [4] of 0. Moreover, the “HepSE_elevated liver function tests” value in data set [5] came to 0. The HepSE_hepatic failure in [6] is given as 0. The compound further showed a HepSE_hepatic necrosis in data set [7] of 0. The HepSE_hepatitis in [8] is given as 0. The compound further displayed a HepSE_hepatomegaly in data set [9] of 0. This compound also had a HepSE_jaundice in data set [10] of 0. This compound also showed a HepSE_liver disease in data set [11] of 0. Also, the HepSE_liver fatty in data set [12] stood at 0. In [13], the “HepSE_liver function tests abnormal” value was 0. Besides, the “HepSE_Combined Scores” value in [14] is on record as 0.

On to `C=C1[C@H](CO)[C@@H](O)C[C@@H]1n1cnc2c(=O)[nH]c(N)nc21.O`, for which the HepSE_bilirubinemia in data set [1] amounted to 0. Moreover, the HepSE_cholecystitis in [2] worked out at 0. In [3], this compound came in with a HepSE_cholelithiasis of 0. This compound also yielded a HepSE_cirrhosis in data set [4] of 0. In addition, the “HepSE_elevated liver function tests” value in data set [5] stood at 0. Moreover, the HepSE_hepatic failure in [6] amounted to 0. In data set [7], this compound showed a HepSE_hepatic necrosis of 0. Besides, the HepSE_hepatitis in data set [8] was 1. In addition, in data set [9], the HepSE_hepatomegaly was 1. The same compound gave a HepSE_jaundice in [10] of 0. This compound also displayed a HepSE_liver disease in [11] of 0. Further, the HepSE_liver fatty in [12] turned out to be 0. The “HepSE_liver function tests abnormal” value in [13] came to 0. Besides, the “HepSE_Combined Scores” value in data set [14] turned out to be 2.

The compound `CCCN(CCc1ccsc1)C1CCc2c(O)cccc2C1` (stereo not given) had a HepSE_bilirubinemia in [1] of 0. This compound also yielded a HepSE_cholecystitis in data set [2] of 0. Besides, the HepSE_cholelithiasis in data set [3] is 0. The same compound yielded a HepSE_cirrhosis in [4] of 0. In data set [5], the “HepSE_elevated liver function tests” value is given as 0. Moreover, in data set [6], the HepSE_hepatic failure came out at 0. The HepSE_hepatic necrosis in data set [7] is listed as 0. In [8], this compound displayed a HepSE_hepatitis of 0. The compound also yielded a HepSE_hepatomegaly in [9] of 0. In data set [10], this compound registered a HepSE_jaundice of 0. In addition, the HepSE_liver disease in data set [11] is 0. Besides, the HepSE_liver fatty in [12] is recorded as 0. Besides, the “HepSE_liver function tests abnormal” value in [13] stood at 0. Also, in [14], the “HepSE_Combined Scores” value is reported as 0.

The compound `C=CC1=C(C(=O)O)N2C(=O)[C@@H](NC(=O)/C(=N\O)c3csc(N)n3)[C@H]2SC1` gave a HepSE_bilirubinemia in data set [1] of 0. This compound gave a HepSE_cholecystitis in [2] of 0. The same compound showed a HepSE_cholelithiasis in data set [3] of 0. The same compound displayed a HepSE_cirrhosis in [4] of 0. Further, in data set [5], the “HepSE_elevated liver function tests” value came out at 0. The same compound came in with a HepSE_hepatic failure in [6] of 1. This compound also displayed a HepSE_hepatic necrosis in data set [7] of 0. The same compound showed a HepSE_hepatitis in data set [8] of 1. The HepSE_hepatomegaly in data set [9] was 0. In addition, the HepSE_jaundice in data set [10] is listed as 1. Also, the HepSE_liver disease in data set [11] stood at 0. In addition, the HepSE_liver fatty in [12] amounted to 0. Further, the “HepSE_liver function tests abnormal” value in data set [13] is given as 0. In addition, the “HepSE_Combined Scores” value in [14] came out at 3.
